{
  "source": "patent US20080255186A1",
  "about": "“Pyrazolo[3,4-B]Pyridine Compound, and Its Use as a Pde4 Inhibitor” (priority 2005, published 2008)",
  "origin": "cited, not measured here",
  "key": {"[1]": {"tested_on": "atopic dermatitis patients", "conditions": "0.5% ointment, twice daily topical application; cited from earlier work"}, "[2]": {"tested_on": "COPD patients", "conditions": "cited from earlier work"}, "[3]": {"tested_on": "atopic dermatitis patients", "conditions": "0.15% cream vs vehicle and hydrocortisone 17-butyrate (0.1%) cream; cited from earlier work"}, "[4]": {"tested_on": "humans with histories of allergic rhinitis", "conditions": "orally 500 ug once daily for 9 days, compared to placebo; cited from earlier work"}},
  "data": [
    {"smiles": "COc1ccc(C2CNC(=O)NC2)cc1O[C@H]1C[C@@H]2CC[C@H]1C2", "note": "[CP80,633]", "values": [
      {"measurement": "Effect on inflammatory parameters in atopic dermatitis patients", "setting": "[1]", "value": "reductions of inflammatory parameters"}
    ]},
    {"smiles": "COc1ccc([C@]2(C#N)CC[C@@H](C(=O)O)CC2)cc1OC1CCCC1", "note": "[cilomilast]", "values": [
      {"measurement": "Effect on forced expiratory volume (FEV1) in COPD patients", "setting": "[2]; cilomilast: 15 mg orally twice daily", "value": "appears to improve forced expiratory volume"},
      {"measurement": "Antiinflammatory effects in COPD patients", "setting": "[2]; human, in vivo", "value": "appears to have antiinflammatory effects in COPD patients"}
    ]},
    {"smiles": "Nc1nc2c([nH]1)c(=O)n(CC1CC1)c(=O)n2CC1CC1", "note": "[cipamfylline]", "values": [
      {"measurement": "Efficacy in treatment of atopic dermatitis patients", "setting": "[3]", "value": "significantly more effective than vehicle, but significantly less effective than hydrocortisone 17-butyrate (0.1%) cream"}
    ]},
    {"smiles": "O=C(Nc1c(Cl)cncc1Cl)c1ccc(OC(F)F)c(OCC2CC2)c1", "note": "[roflumilast]", "values": [
      {"measurement": "Effect on rhinal airflow", "setting": "[4]", "value": "effective in improving rhinal airflow"}
    ]}
  ]
}
